19 compounds from patent US10577363B2, “Substituted piperidine compounds” (EPIZYME, INC., priority 2014, dated 2020) can be followed below.

For assay [1], the target named is T1, SMYD3 (Homo sapiens (Human), UniProt Q9H7B4). In words: SMYD3 biochemical assay (SPA, 3H-SAM methylation of MEKK2 protein substrate). As to conditions: average of n = 1 to n = 50; read-out: SMYD3 Biochem IC50. In outline: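 SPA methyltransferase format: tag-cleaved human SMYD3, insect-cell GST-MEKK2 protein substrate, 3H-SAM donor, 30 min RT enzyme–compound preincubation, 100 uM cold SAM quench.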

Assay [2] has as its target T1, SMYD3. In words: SMYD3 cell assay (Trimethyl-MEKK2 In-Cell Western in 293T/17 cells). To be noted: average of n = 1 to n = 50; read-out: SMYD3 Cell IC50. It counts as cell-based. In outline:
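In-Cell Western readout: methanol-fixed cells stained for trimethyl-MEKK2 and flag tag, ratio per well normalized to DMSO and background controls.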

Structures are written as SMILES.

T1 sequence (Q9H7B4 whole entry): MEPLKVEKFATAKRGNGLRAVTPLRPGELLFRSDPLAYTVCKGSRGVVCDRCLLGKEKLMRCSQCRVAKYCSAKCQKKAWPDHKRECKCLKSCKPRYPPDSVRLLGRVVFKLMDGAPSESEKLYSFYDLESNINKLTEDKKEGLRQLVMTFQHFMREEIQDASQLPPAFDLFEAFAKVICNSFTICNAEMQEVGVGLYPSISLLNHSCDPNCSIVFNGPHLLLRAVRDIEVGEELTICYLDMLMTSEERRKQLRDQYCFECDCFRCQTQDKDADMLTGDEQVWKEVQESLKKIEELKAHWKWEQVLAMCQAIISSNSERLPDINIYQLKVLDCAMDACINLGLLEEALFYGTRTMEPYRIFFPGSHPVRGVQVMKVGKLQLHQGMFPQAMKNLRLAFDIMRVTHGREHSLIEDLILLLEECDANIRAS

`CN1CCC(CS(=O)(=O)N2CC[C@H](NC(=O)c3cc(C4CC4)on3)C[C@@H]2Cc2ccccc2)CC1` [compound 682, N-((2S,4S)-2-benzyl-1-(((1-methylpiperidin-4-yl)methyl)sulfonyl)piperidin-4-yl)-5-cyclopropylisoxazole-3-carboxamide]: the IC50 on SMYD3 [1] turned out to be 121 nM; at SMYD3 [2], 1250 nM.
As to `C[C@@H]1C[C@H](NC(=O)c2cc(C3CC3)on2)CCN1C(=O)c1ccc(N2CCNCC2)nc1` [compound 683, 5-cyclopropyl-N-((2R,4R)-2-methyl-1-(6-(piperazin-1-yl)nicotinoyl)piperidin-4-yl)isoxazole-3-carboxamide], the IC50 is 122 nM at SMYD3 [1] and 1780 nM at SMYD3 [2].
On to `CN1CCN(S(=O)(=O)N2[C@@H]3CC[C@H]2C[C@@H](NC(=O)c2cc(C4CC4)on2)C3)CC1CO` (stereo partly drawn) [compound 684, 5-cyclopropyl-N-((1R,3r,5S)-8-((3-(hydroxymethyl)-4-methylpiperazin-1-yl)sulfonyl)-8-azabicyclo[3.2.1]octan-3-yl)isoxazole-3-carboxamide], for which the IC50 at SMYD3 [1] stood at 122 nM; on SMYD3 [2], 923 nM.
With `C[C@@H]1CN(S(=O)(=O)N2CCN(C)CC2)[C@H](C)C[C@@H]1NC(=O)c1cc(C2CC2)on1` [compound 685, 5-cyclopropyl-N-((2R,4S,5R)-2,5-dimethyl-1-((4-methylpiperazin-1-yl)sulfonyl)piperidin-4-yl)isoxazole-3-carboxamide], the IC50 is 124 nM at SMYD3 [1] and 254 nM on SMYD3 [2].
With `C[C@@H]1C[C@H](NC(=O)c2cc(C3CC3)on2)CCN1C(=O)c1ccc(CN(C)C)cc1` [compound 686, 5-cyclopropyl-N-((2R,4R)-1-(4-((dimethylamino)methyl)benzoyl)-2-methylpiperidin-4-yl)isoxazole-3-carboxamide], the values for the IC50 at SMYD3 [1] and on SMYD3 [2] were 129 nM and 1540 nM, respectively.
Take `CN(C1CCNCC1)S(=O)(=O)N1[C@@H]2CCC[C@H]1C[C@H](NC(=O)c1cc(C3CC3)on1)C2` [compound 687, 5-cyclopropyl-N-((1R,3s,5S)-9-(N-methyl-N-(piperidin-4-yl)sulfamoyl)-9-azabicyclo[3.3.1]nonan-3-yl)isoxazole-3-carboxamide]: the concentration for half-maximal inhibition (IC50) stood at 130 nM on SMYD3 [1] and 1710 nM on SMYD3 [2].
Consider `C[C@@H]1CN(S(=O)(=O)CCN)[C@H](C)C[C@@H]1NC(=O)c1cc(C2CC2)on1` [compound 688, N-((2R,4S,5R)-1-((2-aminoethyl)sulfonyl)-2,5-dimethylpiperidin-4-yl)-5-cyclopropylisoxazole-3-carboxamide], for which the IC50 on SMYD3 [1] amounted to 131 nM; at SMYD3 [2], 783 nM.
Consider `CC1CCCN1CCS(=O)(=O)N1[C@@H]2CC[C@H]1C[C@@H](NC(=O)c1cc(C3CC3)on1)C2` (stereo partly drawn) [compound 689, 5-cyclopropyl-N-((1R,3r,5S)-8-((2-(2-methylpyrrolidin-1-yl)ethyl)sulfonyl)-8-azabicyclo[3.2.1]octan-3-yl)isoxazole-3-carboxamide], for which the results for the IC50 at SMYD3 [1] and at SMYD3 [2] were 131 nM and 764 nM, respectively.
As to `O=C(N[C@H]1C[C@H]2CC[C@@H](C1)N2S(=O)(=O)CCN1CCC(O)C1)c1cc(C2CC2)on1` (stereo partly drawn) [compound 690, 5-cyclopropyl-N-((1R,3r,5S)-8-((2-(3-hydroxypyrrolidin-1-yl)ethyl)sulfonyl)-8-azabicyclo[3.2.1]octan-3-yl)isoxazole-3-carboxamide], the IC50 was 138 nM on SMYD3 [1] and 553 nM at SMYD3 [2].
For `O=C(N[C@H]1CCN(S(=O)(=O)CC2CCNCC2)[C@H](Cc2ccccc2)C1)c1cc(C2CC2)on1` [compound 691, N-((2R,4S)-2-benzyl-1-((piperidin-4-ylmethyl)sulfonyl)piperidin-4-yl)-5-cyclopropylisoxazole-3-carboxamide], the IC50 on SMYD3 [1] was 144 nM; on SMYD3 [2] it was 1950 nM.
With `CC1CN(S(=O)(=O)N2[C@@H]3CC[C@H]2C[C@@H](NC(=O)c2cc(C4CC4)on2)C3)CC(C)N1` (stereo partly drawn) [compound 692, 5-cyclopropyl-N-((1R,3r,5S)-8-((3,5-dimethylpiperazin-1-yl)sulfonyl)-8-azabicyclo[3.2.1]octan-3-yl)isoxazole-3-carboxamide], the IC50 at SMYD3 [1] came out at 148 nM; at SMYD3 [2], 637 nM.
For the compound `C[C@H]1CN(S(=O)(=O)CC2CCN(CCN3CCCCC3)CC2)CC[C@H]1NC(=O)c1cc(C2CC2)on1` [compound 693, 5-cyclopropyl-N-((3S,4R)-3-methyl-1-(((1-(2-(piperidin-1-yl)ethyl)piperidin-4-yl)methyl)sulfonyl)piperidin-4-yl)isoxazole-3-carboxamide], the figures for the IC50 at SMYD3 [1] and at SMYD3 [2] were 156 nM and 4040 nM, respectively.
As for `C[C@H]1CN(S(=O)(=O)CCN)[C@@H](C)C[C@H]1NC(=O)c1cc(C2CC2)on1` [compound 694, N-((2S,4R,5S)-1-((2-aminoethyl)sulfonyl)-2,5-dimethylpiperidin-4-yl)-5-cyclopropylisoxazole-3-carboxamide], the values for the IC50 at SMYD3 [1] and at SMYD3 [2] were 157 nM and 952 nM, respectively.
For the compound `C[C@H]1C[C@@H](NC(=O)c2cc(C3CC3)on2)CCN1S(=O)(=O)C(CCN)c1ccccc1` (stereo partly drawn) [compound 695, N-((2S,4S)-1-((3-amino-1-phenylpropyl)sulfonyl)-2-methylpiperidin-4-yl)-5-cyclopropylisoxazole-3-carboxamide], the IC50 on SMYD3 [1] was 169 nM; on SMYD3 [2], 1830 nM.
On the same counts, the results for `C[C@H]1CN(S(=O)(=O)NC2CCN(Cc3ccccc3)CC2)CC[C@H]1NC(=O)c1cc(C2CC2)on1` [compound 696, N-((3S,4R)-1-(N-(1-benzylpiperidin-4-yl)sulfamoyl)-3-methylpiperidin-4-yl)-5-cyclopropylisoxazole-3-carboxamide] are 170 nM and 1550 nM.
For `C[C@H]1C[C@@H](NC(=O)c2cc(C3CC3)on2)CCN1S(=O)(=O)CCCNc1ccccc1` [compound 697, 5-cyclopropyl-N-((2S,4S)-2-methyl-1-((3-(phenylamino)propyl)sulfonyl)piperidin-4-yl)isoxazole-3-carboxamide], the results for the IC50 on SMYD3 [1] and on SMYD3 [2] were 178 nM and 1560 nM, respectively.
As to `C[C@H]1CN(S(=O)(=O)CC2CCN(CCC(F)(F)F)CC2)CC[C@H]1NC(=O)c1cc(C2CC2)on1` [compound 698, 5-cyclopropyl-N-((3S,4R)-3-methyl-1-(((1-(3,3,3-trifluoropropyl)piperidin-4-yl)methyl)sulfonyl)piperidin-4-yl)isoxazole-3-carboxamide], the IC50 was 179 nM on SMYD3 [1] and 746 nM on SMYD3 [2].
On the same counts, the results for `CC1CN(S(=O)(=O)N2CC[C@H](NC(=O)c3cc(C4CC4)on3)C[C@@H]2C)CCN1C` (stereo partly drawn) [compound 699, 5-cyclopropyl-N-((2S,4S)-1-((3,4-dimethylpiperazin-1-yl)sulfonyl)-2-methylpiperidin-4-yl)isoxazole-3-carboxamide] are 193 nM and 658 nM.
On to `O=C(N[C@H]1CCN(S(=O)(=O)CC2CCCNC2)[C@@H](Cc2ccccc2)C1)c1cc(C2CC2)on1` (stereo partly drawn) [compound 700, N-((2S,4S)-2-benzyl-1-((piperidin-3-ylmethyl)sulfonyl)piperidin-4-yl)-5-cyclopropylisoxazole-3-carboxamide], for which the figures for the IC50 on SMYD3 [1] and at SMYD3 [2] were 194 nM and 2110 nM, respectively.
